Source: US7981883B2, “Substituted spiro-compounds and the use thereof for producing medicaments” (Gruenenthal GmbH, priority 2005, dated 2011)

Key:
Format in all cases: cell-based
[1] = biological target: T1, VR1 (rat) (Rattus norvegicus, UniProt O35433); assay: Functional FLIPR Ca2+ inflow assay on rat-species vanilloid receptor 1 in rat dorsal root ganglia cells; conditions: test compound 10 μM; for inhibition at 10 µM: read-out: VR1 (rat) (% inhibition compared to 10 μM CP); for activation at 10 µM: read-out: VR1 (rat) (% stimulation compared to 10 μM CP)
T1 construct: from tissue; host or cells: primary cells dissociated from rat dorsal root ganglia
T1 sequence (O35433 whole entry): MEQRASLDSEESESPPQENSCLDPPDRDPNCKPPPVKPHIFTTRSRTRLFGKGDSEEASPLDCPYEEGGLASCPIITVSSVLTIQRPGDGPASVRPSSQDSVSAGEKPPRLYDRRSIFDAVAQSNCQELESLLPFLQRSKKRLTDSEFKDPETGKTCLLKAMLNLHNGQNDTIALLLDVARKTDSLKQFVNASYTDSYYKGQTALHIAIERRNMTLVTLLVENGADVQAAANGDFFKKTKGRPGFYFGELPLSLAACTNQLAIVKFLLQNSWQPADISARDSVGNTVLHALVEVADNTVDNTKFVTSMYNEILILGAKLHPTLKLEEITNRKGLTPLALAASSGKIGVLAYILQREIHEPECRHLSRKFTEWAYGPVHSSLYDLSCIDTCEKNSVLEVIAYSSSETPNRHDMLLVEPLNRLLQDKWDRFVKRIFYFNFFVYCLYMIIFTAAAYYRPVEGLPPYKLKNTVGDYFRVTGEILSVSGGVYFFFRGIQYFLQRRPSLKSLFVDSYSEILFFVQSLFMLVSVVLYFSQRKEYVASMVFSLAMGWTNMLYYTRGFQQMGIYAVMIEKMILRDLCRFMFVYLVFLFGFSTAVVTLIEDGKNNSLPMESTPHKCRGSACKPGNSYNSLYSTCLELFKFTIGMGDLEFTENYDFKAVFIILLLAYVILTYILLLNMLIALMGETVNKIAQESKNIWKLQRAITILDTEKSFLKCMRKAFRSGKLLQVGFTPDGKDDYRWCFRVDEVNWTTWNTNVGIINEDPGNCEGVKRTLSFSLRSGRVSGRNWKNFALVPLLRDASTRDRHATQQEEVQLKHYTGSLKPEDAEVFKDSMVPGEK
Source text: I. Functional Testing Carried Out on the Vanilloid Receptor 1 (VR1/TRPV1 Receptor)
(§1) The agonistic or antagonistic effect of the substances to be tested can be determined on the rat-species vanilloid receptor 1 (VR1/TRPV1) using the following assay. According to this assay, the Ca^2+ inflow is quantified through the receptor channel using a Ca^2+-sensitive dye (type Fluo-4, Molecular Probes Europe BV, Leiden, Netherlands) in a fluorescent imaging plate reader (FLIPR, Molecular Devices, Sunnyvale, USA).
Complete medium: 50 mL HAMS F12 nutrient mixture (Gibco Invitrogen GmbH, Karlsruhe, Germany) with
10% by volume of FCS (foetal calf serum, Gibco Invitrogen GmbH, Karlsruhe, Germany, […]);
2 mM L-glutamine (Sigma, Munich, Germany);
1% by weight of AA solution (antibiotic/antimyotic solution, PAA, Pasching, Austria) and 25 ng/ml NGF medium (2.5 S, Gibco Invitrogen GmbH, Karlsruhe, Germany)
Cell culture plate: Poly-D-lysine-coated, black 96 well plates having a clear base (96 well black/clear plate, BD Biosciences, Heidelberg, Germany) were additionally coated with laminin (Gibco Invitrogen GmbH, Karlsruhe, Germany), the laminin being diluted with PBS (Ca—Mg-free PBS, Gibco Invitrogen GmbH, Karlsruhe, Germany) to a concentration of 100 μg/mL. Aliquots having a laminin concentration of 100 μg/mL were removed and stored at −20° C. The aliquots were diluted with PBS in a ratio of 1:10 to 10 μg/mL laminin and in each case 50 μL of the solution were pipetted into a recess in the cell culture plate. The cell culture plates were incubated for at least two hours at 37° C., the excess solution was removed by suction-filtration and the recesses were each washed twice with PBS. The coated cell culture plates were stored with excess PBS which was not removed until just before the feeding of the cells.
The vertebral column was removed from decapitated rats and placed immediately into cold HBSS buffer (Hank's buffered saline solution, Gibco Invitrogen GmbH, Karlsruhe, Germany), i.e. buffer located in an ice bath, mixed with 1% by volume (percent by volume) of an AA solution (antibiotic/antimyotic solution, PAA, Pasching, Austria). The vertebral column was cut longitudinally and removed together with fasciae from the vertebral canal. Subsequently, the dorsal root ganglia (DRG) were removed and again stored in cold HBSS buffer mixed with 1% by volume of an AA solution. The DRG, from which all blood remnants and spinal nerves had been removed, were transferred in each case to 500 μL of cold type 2 collagenase (PAA, Pasching, Austria) and incubated for 35 minutes at 37° C. After the addition of 2.5% by volume of trypsin (PAA, Pasching, Austria), incubation was continued for 10 minutes at 37° C. After complete incubation, the enzyme solution was carefully pipetted off and 500 μL of complete medium were added to each of the remaining DRG. The DRG were in each case suspended several times, drawn through cannulae No. 1, No. 12 and No. 16 using a syringe and transferred to a 50 mL Falcon tube which was filled up to 15 mL with complete medium. The contents of each Falcon tube was in each case filtered through a 70 μm Falcon filter element and centrifuged for 10 minutes at 1,200 rpm and room temperature. The resulting pellet was in each case taken up in 250 μL of complete medium and the number of cells determined.
The number of cells in the suspension was set to 3×10^5 per mL and 150 μL of this suspension were in each case introduced into a recess in the cell culture plates coated as described hereinbefore. In the incubator the plates were left for two to three days at 37° C., 5% by volume of CO2 and 95% relative humidity. […]

[2] = biological target: T2, VR1 (human) (Homo sapiens, UniProt Q8NER1); assay: Functional FLIPR Ca2+ inflow assay on VR1 (human), CHO K1 cells stably transfected with the VR1 gene; conditions: test compound 10 μM; for inhibition at 10 µM / activation at 10 µM: CHO-K1; for inhibition at 10 µM: read-out: VR1 (human) (% inhibition compared to 10 μM CP); for activation at 10 µM: read-out: VR1 (human) (% stimulation compared to 10 μM CP)
T2 construct: expressed in transfected cells; host or cells: CHO K1 cells (ECACC)
T2 sequence (Q8NER1 whole entry): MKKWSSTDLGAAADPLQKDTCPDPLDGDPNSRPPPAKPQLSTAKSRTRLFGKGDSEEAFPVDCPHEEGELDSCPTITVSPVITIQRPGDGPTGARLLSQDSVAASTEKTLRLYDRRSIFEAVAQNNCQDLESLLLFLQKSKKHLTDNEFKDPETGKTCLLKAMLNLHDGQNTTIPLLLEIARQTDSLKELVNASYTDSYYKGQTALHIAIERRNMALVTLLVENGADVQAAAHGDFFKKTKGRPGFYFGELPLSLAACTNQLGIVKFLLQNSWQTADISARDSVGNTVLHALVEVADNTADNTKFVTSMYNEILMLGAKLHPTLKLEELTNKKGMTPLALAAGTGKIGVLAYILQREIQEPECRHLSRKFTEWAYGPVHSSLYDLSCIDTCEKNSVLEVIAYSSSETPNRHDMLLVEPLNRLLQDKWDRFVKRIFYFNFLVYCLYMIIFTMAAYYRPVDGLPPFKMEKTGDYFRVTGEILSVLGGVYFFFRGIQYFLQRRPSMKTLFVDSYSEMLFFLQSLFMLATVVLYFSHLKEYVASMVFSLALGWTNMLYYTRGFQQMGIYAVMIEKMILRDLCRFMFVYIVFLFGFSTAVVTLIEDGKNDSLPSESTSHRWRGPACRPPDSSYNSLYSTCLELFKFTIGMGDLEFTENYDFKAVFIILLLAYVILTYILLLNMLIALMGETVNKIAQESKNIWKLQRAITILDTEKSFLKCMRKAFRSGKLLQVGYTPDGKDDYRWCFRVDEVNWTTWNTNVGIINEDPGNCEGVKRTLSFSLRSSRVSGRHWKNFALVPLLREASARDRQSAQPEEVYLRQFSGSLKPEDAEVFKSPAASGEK
Source text: II. Functional Testing Carried Out on the Vanilloid Receptor (VR1)
as §1, with “can also” for “can”, “the” for “the rat-species”, “(VR1)” for “1 (VR1/TRPV1)”, “the” for “the receptor”
Chinese hamster ovary cells (CHO K1 cells, European Collection of Cell Cultures (ECACC) United Kingdom) were stably transfected with the VR1 gene. For functional testing, these cells were plated out on poly-D-lysine-coated black 96 well plates having a clear base (BD Biosciences, Heidelberg, Germany) at a density of 25,000 cells/well. The cells were incubated overnight at 37° C. and 5% CO2 in a culture medium (Ham's F12 nutrient mixture, 10% by volume of FCS (foetal calf serum), 18 μg/ml L-proline). The next day the cells were incubated with Fluo-4 (Fluo-4 2 μM, 0.01% by volume of Pluronic F127, Molecular Probes in HBSS (Hank's buffered saline solution), Gibco Invitrogen GmbH, Karlsruhe, Germany) for 30 minutes at 37° C. Subsequently, the plates were washed three times with HBSS buffer and after further incubation for 15 minutes at room temperature used for Ca^2+ measurement in a FLIPR assay. The Ca^2+-dependent fluorescence was measured before and after the addition of the substances to be tested (λex wavelength=488 nm, λem=540 nm). Quantification was carried out by measuring the highest fluorescence intensity (FC, Fluorescence Counts) over time.
The FLIPR protocol consists of 2 substance additions. First the compounds to be tested (10 μM) were pipetted onto the cells and the Ca^2+ inflow was compared with the control (capsaicin 10 μM) (% activation based on the Ca^2+ signal after the addition of 10 μM capsaicin). After 5 minutes' incubation, 100 nM of capsaicin were administered and the Ca^2+ inflow was also determined.
Desensitising agonists and antagonists led to suppression of the Ca^2+ inflow. The % inhibition was calculated compared to the maximum achievable inhibition with 10 μM of capsaicin.

[3] = biological target: T1, VR1 (rat); assay: Functional FLIPR Ca2+ inflow assay on rat-species vanilloid receptor 1 in rat dorsal root ganglia cells; conditions: against capsaicin (CAP)
[4] = biological target: T2, VR1 (human); assay: Functional FLIPR Ca2+ inflow assay on VR1 (human), CHO K1 cells stably transfected with the VR1 gene; conditions: against capsaicin (CAP)
[5] = then 100 nM capsaicin after 5 min, relative to maximum inhibition with 10 μM capsaicin
[6] = Ca2+ signal relative to 10 μM capsaicin (CP)

Structure (SMILES)	VR1 (rat) (% inhibition compared to 10 μM CP) [1, 5]	VR1 (rat) (% stimulation compared to 10 μM CP) [1, 6]	VR1 (human) (% inhibition compared to 10 μM CP) [2, 5]	VR1 (human) (% stimulation compared to 10 μM CP) [2, 6]	IC50 [3]	Ki [3]	IC50 [4]	Ki [4]	inhibition at 10 µM [1, 5]	activation at 10 µM [1, 6]	inhibition at 10 µM [2, 5]	activation at 10 µM [2, 6]
CC(C)(C)[C@H]1CC[C@@]2(CC1)CC(C(=O)N1CCN(c3ncccc3C(F)(F)F)CC1)=NO2 [Example 9, cis-(8-tert-butyl-1-oxa-2-azaspiro[4.5]dec-2-en-3-yl)-[4-(3-trifluoromethylpyridin-2-yl)piperazin-1-yl]methanone]	91.46%	1.05%	61.74%	0.41%	1550 nM	894 nM	3340 nM	4860 nM				
CC(C)(C)[C@H]1CC[C@@]2(CC1)CC(C(=O)NCc1ccc(NS(C)(=O)=O)c(F)c1)=NO2 [Example 7, cis-8-tert-butyl-1-oxa-2-azaspiro[4.5]dec-2-ene-3-carboxylic acid-3-fluoro-4-methanesulphonylaminobenzylamide]					126 nM	79.7 nM	1240 nM	1990 nM	105%	0.23%	92.8%	-0.05%
CCC(C)(C)C1CCC2(CC1)CC(C(=O)NCc1ccc(NS(C)(=O)=O)c(F)c1)=NO2 (stereo not drawn) [Example 80, N-(3-fluoro-4-(methylsulphonamido)benzyl)-8-tert-pentyl-1-oxa-2-azaspiro[4.5]dec-2-ene-3-carboxamide]					1220 nM	341 nM	2870 nM	2050 nM	103%	48%	42%	35%
